*1 amine or outer side, *2 acyl side, *3 side chain or, on linkers, in order; H or OH if unused. Where a SMILES comes first, the peptide text is derived from it. Side-chain parts run from the residue outwards. The star is where a group is joined. NH(CH2)3O(βDGlc) = OC[C@H]1O[C@@H](OCCCN*)[C@H](O)[C@@H](O)[C@@H]1O; Glutaryl = O=C(CCCC(=O)[*:2])[*:1]; Lauroyl = CCCCCCCCCCCC(=O)*
Experiments:
MCF7 = test: Cytotoxicity against human MCF7 cells assessed as cell viability measured after 24 hrs by CCK-8 assay; format: functional, cell-based; settings: MCF7, 24 h
MDA-MB-231 = test: Cytotoxicity against human MDA-MB-231 cells assessed as cell viability measured after 24 hrs by CCK-8 assay; format: functional, cell-based; settings: MDA-MB-231, 24 h
MX1 = test: Cytotoxicity against human MX1 cells assessed as cell viability measured after 24 hrs by CCK-8 assay; format: functional, cell-based; settings: MX1, 24 h
Homo sapiens = species: Homo sapiens; test: Binding affinity to membrane (unknown origin) assessed as binding free energy
[1] = biological target: T1, Solute carrier family 2, facilitated glucose transporter member 1 (Homo sapiens) (UniProt P11166); test: Binding affinity to GLUT1 (unknown origin) assessed as binding free energy
T1 sequence (whole entry): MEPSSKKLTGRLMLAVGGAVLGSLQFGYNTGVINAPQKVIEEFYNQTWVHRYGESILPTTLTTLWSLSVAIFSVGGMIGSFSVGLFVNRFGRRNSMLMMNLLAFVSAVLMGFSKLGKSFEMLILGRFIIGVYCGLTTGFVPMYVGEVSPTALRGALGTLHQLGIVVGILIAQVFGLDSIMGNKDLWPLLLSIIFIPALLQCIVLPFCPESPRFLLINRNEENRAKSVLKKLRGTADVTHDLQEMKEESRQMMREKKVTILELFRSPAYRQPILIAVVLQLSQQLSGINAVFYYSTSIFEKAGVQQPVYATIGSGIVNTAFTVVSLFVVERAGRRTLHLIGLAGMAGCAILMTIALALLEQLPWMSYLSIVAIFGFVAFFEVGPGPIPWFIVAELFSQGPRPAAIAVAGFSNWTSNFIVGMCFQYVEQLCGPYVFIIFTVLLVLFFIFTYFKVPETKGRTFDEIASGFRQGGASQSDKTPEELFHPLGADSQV

B16-F10 = test: Cytotoxicity against mouse B16-F10 cells assessed as cell viability after 24 hrs by CCK-8 assay; format: functional, cell-based; settings: B16-F10, 24 h
[2] = biological target: T1, Solute carrier family 2, facilitated glucose transporter member 1 (Homo sapiens); test: Binding affinity to GLUT1 (unknown origin) membrane assessed as free energy

Compound	IC50 (MCF7)	IC50 (MDA-MB-231)	IC50 (MX1)	deltaG (Homo sapiens)	deltaG [1]	IC50 (B16-F10)	deltaG [2]
CCCCCCCCCCCCCC(=O)N[C@@H](CCCNC(=N)N)C(=O)N[C@@H](Cc1c[nH]c2ccccc12)C(=O)N[C@@H](CCCCN)C(=O)N[C@H](C(=O)N[C@@H](Cc1ccccc1)C(=O)N[C@@H](CCCCN)C(=O)N[C@@H](CCCCN)C(=O)N[C@H](C(=O)N[C@@H](CCC(=O)O)C(=O)N[C@@H](CCCCN)C(=O)N[C@H](C(=O)NCC(=O)N[C@@H](CCC(N)=O)C(=O)N[C@@H](CC(N)=O)C(=O)N[C@H](C(=O)N[C@@H](CCCNC(=N)N)C(=O)N[C@@H](CC(=O)O)C(=O)NCC(=O)N[C@H](C(=O)N[C@H](C(=O)N[C@@H](CCCCN)C(=O)N[C@@H](C)C(=O)NCC(=O)N1CCC[C@H]1C(=O)N[C@@H](C)C(=O)N[C@H](C(=O)N[C@@H](C)C(=O)N[C@H](C(=O)N[C@H](C(=O)NCC(=O)N[C@@H](CCC(N)=O)C(=O)N[C@@H](C)C(=O)N[C@@H](C)C(=O)N[C@H](C(=O)N[C@H](C(N)=O)[C@@H](C)CC)[C@@H](C)O)C(C)C)C(C)C)C(C)C)C(C)C)[C@@H](C)CC)[C@@H](C)CC)C(C)C)[C@@H](C)CC)[C@@H](C)CC (HELM PEPTIDE1{[CCCCCCCCCCCCCC(=O)[*:2]].R.W.K.I.F.K.K.I.E.K.V.G.Q.N.I.R.D.G.I.V.K.A.G.P.A.V.A.V.V.G.Q.A.A.T.I.[am]}$$$$V2.0)	< 8 µM	< 8 µM	< 8 µM	–	–	–	–
CCCCCCCCCCCCCCCC(=O)N[C@@H](CCCNC(=N)N)C(=O)N[C@@H](Cc1c[nH]c2ccccc12)C(=O)N[C@@H](CCCCN)C(=O)N[C@H](C(=O)N[C@@H](Cc1ccccc1)C(=O)N[C@@H](CCCCN)C(=O)N[C@@H](CCCCN)C(=O)N[C@H](C(=O)N[C@@H](CCC(=O)O)C(=O)N[C@@H](CCCCN)C(=O)N[C@H](C(=O)NCC(=O)N[C@@H](CCC(N)=O)C(=O)N[C@@H](CC(N)=O)C(=O)N[C@H](C(=O)N[C@@H](CCCNC(=N)N)C(=O)N[C@@H](CC(=O)O)C(=O)NCC(=O)N[C@H](C(=O)N[C@H](C(=O)N[C@@H](CCCCN)C(=O)N[C@@H](C)C(=O)NCC(=O)N1CCC[C@H]1C(=O)N[C@@H](C)C(=O)N[C@H](C(=O)N[C@@H](C)C(=O)N[C@H](C(=O)N[C@H](C(=O)NCC(=O)N[C@@H](CCC(N)=O)C(=O)N[C@@H](C)C(=O)N[C@@H](C)C(=O)N[C@H](C(=O)N[C@H](C(N)=O)[C@@H](C)CC)[C@@H](C)O)C(C)C)C(C)C)C(C)C)C(C)C)[C@@H](C)CC)[C@@H](C)CC)C(C)C)[C@@H](C)CC)[C@@H](C)CC (HELM PEPTIDE1{[CCCCCCCCCCCCCCCC(=O)[*:2]].R.W.K.I.F.K.K.I.E.K.V.G.Q.N.I.R.D.G.I.V.K.A.G.P.A.V.A.V.V.G.Q.A.A.T.I.[am]}$$$$V2.0)	< 8 µM	< 8 µM	< 8 µM	–	–	–	–
CCCCCCCCCCCC(=O)N[C@@H](CCCCNC(=O)CCCC(=O)NCCCO[C@@H]1O[C@H](CO)[C@@H](O)[C@H](O)[C@H]1O)C(=O)NCC(=O)N[C@@H](Cc1c[nH]c2ccccc12)C(=O)N[C@@H](Cc1ccccc1)C(=O)N[C@@H](CCCNC(=N)N)C(=O)N[C@@H](C)C(=O)N[C@@H](CCSC)C(=O)N[C@@H](CCCNC(=N)N)C(=O)N[C@@H](CO)C(=O)N[C@H](C(=O)N[C@@H](C)C(=O)N[C@@H](CCCNC(=N)N)C(=O)N[C@@H](Cc1ccccc1)C(=O)N[C@H](C(=O)N[C@@H](C)C(=O)N[C@@H](CCCNC(=N)N)C(=O)N[C@@H](CCC(=O)O)C(=O)N[C@@H](CCCNC(=N)N)C(=O)N[C@@H](CC(C)C)C(=O)N[C@@H](CCCNC(=N)N)C(=O)N[C@@H](CCC(=O)O)C(=O)N[C@@H](Cc1cnc[nH]1)C(=O)N[C@@H](CC(C)C)C(N)=O)[C@@H](C)CC)[C@@H](C)CC (Lauroyl-K([Glutaryl-NH(CH2)3O(βDGlc)])GWFRAMRSIARFIARERLREHL-NH2)	–	–	–	-61.5 kcal/mol	-61.7 kcal/mol	7.2 µM	-73.7 kcal/mol
CCCCCCCCCCCC(=O)N[C@@H](CCCNC(=N)N)C(=O)NCC(=O)N[C@@H](Cc1c[nH]c2ccccc12)C(=O)N[C@@H](Cc1ccccc1)C(=O)N[C@@H](CCCCNC(=O)CCCC(=O)NCCCO[C@@H]1O[C@H](CO)[C@@H](O)[C@H](O)[C@H]1O)C(=O)N[C@@H](C)C(=O)N[C@@H](CCSC)C(=O)N[C@@H](CCCNC(=N)N)C(=O)N[C@@H](CO)C(=O)N[C@H](C(=O)N[C@@H](C)C(=O)N[C@@H](CCCNC(=N)N)C(=O)N[C@@H](Cc1ccccc1)C(=O)N[C@H](C(=O)N[C@@H](C)C(=O)N[C@@H](CCCNC(=N)N)C(=O)N[C@@H](CCC(=O)O)C(=O)N[C@@H](CCCNC(=N)N)C(=O)N[C@@H](CC(C)C)C(=O)N[C@@H](CCCNC(=N)N)C(=O)N[C@@H](CCC(=O)O)C(=O)N[C@@H](Cc1cnc[nH]1)C(=O)N[C@@H](CC(C)C)C(N)=O)[C@@H](C)CC)[C@@H](C)CC (Lauroyl-RGWFK([Glutaryl-NH(CH2)3O(βDGlc)])AMRSIARFIARERLREHL-NH2)	–	–	–	-63.6 kcal/mol	-64.3 kcal/mol	5.3 µM	-64.1 kcal/mol
CCCCCCCCCCCC(=O)N[C@@H](CCCNC(=N)N)C(=O)NCC(=O)N[C@@H](Cc1c[nH]c2ccccc12)C(=O)N[C@@H](Cc1ccccc1)C(=O)N[C@@H](CCCNC(=N)N)C(=O)N[C@@H](C)C(=O)N[C@@H](CCSC)C(=O)N[C@@H](CCCCNC(=O)CCCC(=O)NCCCO[C@@H]1O[C@H](CO)[C@@H](O)[C@H](O)[C@H]1O)C(=O)N[C@@H](CO)C(=O)N[C@H](C(=O)N[C@@H](C)C(=O)N[C@@H](CCCNC(=N)N)C(=O)N[C@@H](Cc1ccccc1)C(=O)N[C@H](C(=O)N[C@@H](C)C(=O)N[C@@H](CCCNC(=N)N)C(=O)N[C@@H](CCC(=O)O)C(=O)N[C@@H](CCCNC(=N)N)C(=O)N[C@@H](CC(C)C)C(=O)N[C@@H](CCCNC(=N)N)C(=O)N[C@@H](CCC(=O)O)C(=O)N[C@@H](Cc1cnc[nH]1)C(=O)N[C@@H](CC(C)C)C(N)=O)[C@@H](C)CC)[C@@H](C)CC (Lauroyl-RGWFRAMK([Glutaryl-NH(CH2)3O(βDGlc)])SIARFIARERLREHL-NH2)	–	–	–	-27.5 kcal/mol	-58.5 kcal/mol	4.1 µM	-87.4 kcal/mol
CCCCCCCCCCCC(=O)N[C@@H](CCCNC(=N)N)C(=O)NCC(=O)N[C@@H](Cc1c[nH]c2ccccc12)C(=O)N[C@@H](Cc1ccccc1)C(=O)N[C@@H](CCCNC(=N)N)C(=O)N[C@@H](C)C(=O)N[C@@H](CCSC)C(=O)N[C@@H](CCCNC(=N)N)C(=O)N[C@@H](CO)C(=O)N[C@H](C(=O)N[C@@H](C)C(=O)N[C@@H](CCCNC(=N)N)C(=O)N[C@@H](Cc1ccccc1)C(=O)N[C@H](C(=O)N[C@@H](C)C(=O)N[C@@H](CCCNC(=N)N)C(=O)N[C@@H](CCC(=O)O)C(=O)N[C@@H](CCCCNC(=O)CCCC(=O)NCCCO[C@@H]1O[C@H](CO)[C@@H](O)[C@H](O)[C@H]1O)C(=O)N[C@@H](CC(C)C)C(=O)N[C@@H](CCCNC(=N)N)C(=O)N[C@@H](CCC(=O)O)C(=O)N[C@@H](Cc1cnc[nH]1)C(=O)N[C@@H](CC(C)C)C(N)=O)[C@@H](C)CC)[C@@H](C)CC (Lauroyl-RGWFRAMRSIARFIAREK([Glutaryl-NH(CH2)3O(βDGlc)])LREHL-NH2)	–	–	–	-66.8 kcal/mol	-60.1 kcal/mol	3.3 µM	-72.8 kcal/mol
CCCCCCCCCCCC(=O)N[C@@H](CCCNC(=N)N)C(=O)NCC(=O)N[C@@H](Cc1c[nH]c2ccccc12)C(=O)N[C@@H](Cc1ccccc1)C(=O)N[C@@H](CCCNC(=N)N)C(=O)N[C@@H](C)C(=O)N[C@@H](CCSC)C(=O)N[C@@H](CCCNC(=N)N)C(=O)N[C@@H](CO)C(=O)N[C@H](C(=O)N[C@@H](C)C(=O)N[C@@H](CCCNC(=N)N)C(=O)N[C@@H](Cc1ccccc1)C(=O)N[C@H](C(=O)N[C@@H](C)C(=O)N[C@@H](CCCNC(=N)N)C(=O)N[C@@H](CCC(=O)O)C(=O)N[C@@H](CCCNC(=N)N)C(=O)N[C@@H](CC(C)C)C(=O)N[C@@H](CCCCNC(=O)CCCC(=O)NCCCO[C@@H]1O[C@H](CO)[C@@H](O)[C@H](O)[C@H]1O)C(=O)N[C@@H](CCC(=O)O)C(=O)N[C@@H](Cc1cnc[nH]1)C(=O)N[C@@H](CC(C)C)C(N)=O)[C@@H](C)CC)[C@@H](C)CC (Lauroyl-RGWFRAMRSIARFIARERLK([Glutaryl-NH(CH2)3O(βDGlc)])EHL-NH2)	–	–	–	-65.7 kcal/mol	-77.1 kcal/mol	3.5 µM	-123 kcal/mol
CCCCCCCCCCCC(=O)N[C@@H](CCCNC(=N)N)C(=O)NCC(=O)N[C@@H](Cc1c[nH]c2ccccc12)C(=O)N[C@@H](Cc1ccccc1)C(=O)N[C@@H](CCCNC(=N)N)C(=O)N[C@@H](C)C(=O)N[C@@H](CCSC)C(=O)N[C@@H](CCCNC(=N)N)C(=O)N[C@@H](CO)C(=O)N[C@H](C(=O)N[C@@H](C)C(=O)N[C@@H](CCCNC(=N)N)C(=O)N[C@@H](Cc1ccccc1)C(=O)N[C@@H](CC(C)C)C(=O)N[C@@H](C)C(=O)N[C@@H](CCCCNC(=O)CCCC(=O)NCCCO[C@@H]1O[C@H](CO)[C@@H](O)[C@H](O)[C@H]1O)C(=O)N[C@@H](CCC(=O)O)C(=O)N[C@@H](CCCNC(=N)N)C(=O)N[C@@H](CC(C)C)C(=O)N[C@@H](CCCNC(=N)N)C(=O)N[C@@H](CCC(=O)O)C(=O)N[C@@H](Cc1cnc[nH]1)C(=O)N[C@@H](CC(C)C)C(N)=O)[C@@H](C)CC (Lauroyl-RGWFRAMRSIARFLAK([Glutaryl-NH(CH2)3O(βDGlc)])ERLREHL-NH2)	–	–	–	-87.9 kcal/mol	-61 kcal/mol	3.8 µM	-79.9 kcal/mol
H-RWKIFKKIEKVGQNIRDGIVKAGPAVAVVGQAATI-NH2	< 8 µM	< 8 µM	< 8 µM	–	–	–	–

Source: ChEMBL document CHEMBL5036332, “Glucose-Lipopeptide Conjugates Reveal the Role of Glucose Modification Position in Complexation and the Potential of Malignant Melanoma Therapy” (J Med Chem, 2021)
